Results published in PubChem BioAssay AID1919004 (Molecular Pharmacology Branch, DTP, NCI, 2023).
Several values for one entry are separate records, joined by “and”; a condition that tells them apart may be missing. Identical values can stand only once. Each block holds one compound with its values, some of them ahead of it.

Test system: 883617-216-R-J1-PDC complex spheroids, growth, % test/control
Assay: Anticancer human tumor 883617-216-R-J1-PDC patient-derived bladder carcinoma cell line growth inhibition [AhR]
Conditions: for viability, T/C: stronger effect = lower value
Summary of the method: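 Spheroids combined tumor cells with HUVEC endothelial cells and human MSCs as stroma. AhR antagonists were paired with standard or investigational drugs, each dosed in half-log steps down from near clinical Cmax, or from 10 microM where Cmax was unknown.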

[1] = curve of first compound, second compound 0.1 µM
[2] = curve of first compound, second compound 0.316 µM
[3] = curve of first compound, second compound 1 µM
[4] = curve of first compound, second compound 3.16 µM
[5] = curve of first compound, second compound 10 µM
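Also: exposure lasted 7 days after dosing on day 3 of spheroid growth.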

- IC50 [1]: 0.155 µM
- IC50 [2]: 0.351 µM
- IC50 [3]: 0.187 µM
- IC50 [4]: 0.18 µM
- IC50 [5]: 0.165 µM
SMILES: O=C(C=Cn1cnc(-c2cc(C(F)(F)F)cc(C(F)(F)F)c2)n1)NNc1cnccn1 + CC(CO)NC(=O)c1cc(-c2ccc(Cl)cc2)nn(-c2cnn(C)c2)c1=O
- viability, T/C (second compound 0.1 µM, first compound 0.00949 µM): 93.7%
- viability, T/C (second compound 0.1 µM, first compound 0.03 µM): 78.1%
- viability, T/C (second compound 0.1 µM, first compound 0.0949 µM): 56.8%
- viability, T/C (second compound 0.1 µM, first compound 0.3 µM): 40.4%
- viability, T/C (second compound 0.1 µM, first compound 0.949 µM): 34.5%
- viability, T/C (second compound 0.1 µM, first compound 3 µM): 29.7%
- viability, T/C (second compound 0.316 µM, first compound 0.00949 µM): 109%
- viability, T/C (second compound 0.316 µM, first compound 0.03 µM): 79.4%
- viability, T/C (second compound 0.316 µM, first compound 0.0949 µM): 71%
- viability, T/C (second compound 0.316 µM, first compound 0.3 µM): 50.1%
- viability, T/C (second compound 0.316 µM, first compound 0.949 µM): 37.8%
- viability, T/C (second compound 0.316 µM, first compound 3 µM): 37.2%
- viability, T/C (second compound 1 µM, first compound 0.00949 µM): 60.4%
- viability, T/C (second compound 1 µM, first compound 0.03 µM): 76.3%
- viability, T/C (second compound 1 µM, first compound 0.0949 µM): 65%
- viability, T/C (second compound 1 µM, first compound 0.3 µM): 37.2%
- viability, T/C (second compound 1 µM, first compound 0.949 µM): 46.8%
- viability, T/C (second compound 1 µM, first compound 3 µM): 34.5%
- viability, T/C (second compound 3.16 µM, first compound 0.00949 µM): 65.1%
- viability, T/C (second compound 3.16 µM, first compound 0.03 µM): 61.9%
- viability, T/C (second compound 3.16 µM, first compound 0.0949 µM): 71.2%
- viability, T/C (second compound 3.16 µM, first compound 0.3 µM): 32.4%
- viability, T/C (second compound 3.16 µM, first compound 0.949 µM): 50.3%
- viability, T/C (second compound 3.16 µM, first compound 3 µM): 29.1%
- viability, T/C (second compound 10 µM, first compound 0.00949 µM): 72.3%
- viability, T/C (second compound 10 µM, first compound 0.03 µM): 46.9%
- viability, T/C (second compound 10 µM, first compound 0.0949 µM): 75.3%
- viability, T/C (second compound 10 µM, first compound 0.3 µM): 34.1%
- viability, T/C (second compound 10 µM, first compound 0.949 µM): 37.5%
- viability, T/C (second compound 10 µM, first compound 3 µM): 24.9%

- IC50 [1]: > 1 µM
- IC50 [2]: > 1 µM
- IC50 [3]: > 1 µM
- IC50 [4]: > 1 µM
- IC50 [5]: > 1 µM
SMILES: Nc1ncn(C2CC(O)C(CO)O2)c(=O)n1 (configuration not stated) + CC(CO)NC(=O)c1cc(-c2ccc(Cl)cc2)nn(-c2cnn(C)c2)c1=O
- viability, T/C (second compound 0.1 µM, first compound 0.00316 µM): 101%
- viability, T/C (second compound 0.1 µM, first compound 0.01 µM): 79.9%
- viability, T/C (second compound 0.1 µM, first compound 0.0316 µM): 76.8%
- viability, T/C (second compound 0.1 µM, first compound 0.1 µM): 72.5%
- viability, T/C (second compound 0.1 µM, first compound 0.316 µM): 81.7%
- viability, T/C (second compound 0.1 µM, first compound 1 µM): 82.3%
- viability, T/C (second compound 0.316 µM, first compound 0.00316 µM): 67.2%
- viability, T/C (second compound 0.316 µM, first compound 0.01 µM): 90.2%
- viability, T/C (second compound 0.316 µM, first compound 0.0316 µM): 101%
- viability, T/C (second compound 0.316 µM, first compound 0.1 µM): 76.4%
- viability, T/C (second compound 0.316 µM, first compound 0.316 µM): 71.7%
- viability, T/C (second compound 0.316 µM, first compound 1 µM): 89.7%
- viability, T/C (second compound 1 µM, first compound 0.00316 µM): 90.7%
- viability, T/C (second compound 1 µM, first compound 0.01 µM): 60.6%
- viability, T/C (second compound 1 µM, first compound 0.0316 µM): 78.8%
- viability, T/C (second compound 1 µM, first compound 0.1 µM): 72.1%
- viability, T/C (second compound 1 µM, first compound 0.316 µM): 75.1%
- viability, T/C (second compound 1 µM, first compound 1 µM): 78.8%
- viability, T/C (second compound 3.16 µM, first compound 0.00316 µM): 83.3%
- viability, T/C (second compound 3.16 µM, first compound 0.01 µM): 61.1%
- viability, T/C (second compound 3.16 µM, first compound 0.0316 µM): 81%
- viability, T/C (second compound 3.16 µM, first compound 0.1 µM): 76.8%
- viability, T/C (second compound 3.16 µM, first compound 0.316 µM): 56.8%
- viability, T/C (second compound 3.16 µM, first compound 1 µM): 78.1%
- viability, T/C (second compound 10 µM, first compound 0.00316 µM): 59%
- viability, T/C (second compound 10 µM, first compound 0.01 µM): 84.8%
- viability, T/C (second compound 10 µM, first compound 0.0316 µM): 115%
- viability, T/C (second compound 10 µM, first compound 0.1 µM): 93.1%
- viability, T/C (second compound 10 µM, first compound 0.316 µM): 75.7%
- viability, T/C (second compound 10 µM, first compound 1 µM): 81.2%

- IC50 (curve of compound): > 10 µM
SMILES: COc1cc(C2c3cc4c(cc3C(OC3OC5COC(C)OC5C(O)C3O)C3COC(=O)C23)OCO4)cc(OC)c1O (configuration not stated)
- viability, T/C (compound 0.0316 µM): 91.8% and 80.6% and 110%
- viability, T/C (compound 0.1 µM): 107% and 89.4% and 97.1%
- viability, T/C (compound 0.316 µM): 75.1% and 76.3% and 79.2%
- viability, T/C (compound 1 µM): 63.8% and 88.8% and 74%
- viability, T/C (compound 3.16 µM): 69.7% and 85.2% and 68.1%
- viability, T/C (compound 10 µM): 59.4% and 84.4% and 59.1%
